In patent US8791132B2, “Compounds and methods for treatment of hypertension” (Medivation Technologies, Inc., priority 2011, dated 2014):

Key:
[1] = tested on: conscious New Zealand White rabbits; assay: Blood pressure in conscious rabbits; assay type: in vivo, rabbit; details: i.v. cumulative dose-response study, Compound 3b maximum at 10 mg/kg
Procedure: Methods: Four adult New Zealand White rabbits of both sexes were chosen for these studies. […] To unveil peripheral effects of Compound 3b, two sets of acute studies were conducted in rabbits. […] A single intravenous bolus dose at 3 mg/kg was given and a time-course study was conducted in the second set of studies. Systolic, […], mean and […] blood pressures were recorded in both the studies. […] In a separate set of studies, Clonidine (positive control) was tested where all experimental procedures including dose-regimen were identical to that of the studies with […].

[2] = tested on: SH-SY5Y cells over-expressing α-syn; assay: Cell viability (MTS reduction) in SH-SY5Y cells over-expressing α-synuclein; assay type: cell-based; details: Homo sapiens, 336 h, α-syn over-expression (−dox), compounds at 10 nM, +dox control = 100, 14 days, read-out: Relative cell viability protection
Procedure: Cell Culture. SH-SY5Y cells stably transfected with a doxycyline-inducible wild-type α-synuclein (α-syn) gene along with control SH-SY5Y cells over-expressing the β-galactosidase (β-gal) gene (a gift from L. Stefanis, Division of Basic Neurosciences, Biomedical Research Foundation of the Academy of Athens, Athens, Greece) are cultured as described by Vekrellis et al. (Vekrellis K, Xilouri M, Emmanouilidou E, Stefanis L. (2009). Inducible over-expression of α-syn in human neuronal cells leads to caspase-dependent non-apoptotic death. J Neurochem 109, 1348-1362). In accordance with this method, cells are cultured and maintained in RPMI 1640, 10% fetal bovine serum supplemented with 250 μg/mL G418 and 50 μg/mL Hygromycin B. Expression of α-syn is switched off in stock cultures with doxycycline (2 μg/mL). For experimental procedures, cells are plated at (4−8×10^4 cells/cm^2) and differentiated in absence of doxycycline and in the presence of 20 μM all-trans retinoic acid (RA) (Sigma, St Louis, Mo., USA).
Viability Assay: Cells are cultured in 96-well plates. After 24 h, cells are treated with RA and Compounds of Invention at 0.1 and 10 nM in the absence of doxycyline. Culture medium with RA and drugs is fully replaced after 7 days. Cell viability is measured by the release of lactate dehydrogenase (LDH) from necrotic cells into the culture medium and by measuring the capacity of cells to metabolize MTS tetrazolium (MTS) after 14 days in culture. LDH leakage is assessed according to the Cytotoxicity Detection KitPlus (Roche, Mannheim, Germany) and MTS reduction is assessed by the CellTiter 96® AQueous One Solution Cell Proliferation assay (Promega Corporation, Madison, Wis., USA).
Assay results for the experiments with α-syn over-expression are presented as the MTS reduction capacity (cell viability) of control cells (+dox), cells over-expressing α-syn (−dox), and cells over-expressing α-syn incubated with Compounds of the Invention at 0.1 nM (FIG. 18A) or 10 nM (FIG. 18B).

SH-SY5Y cells = assay: Cell viability (MTS reduction) in 4-Br-A23187-treated SH-SY5Y cells; assay type: cell-based; details: MTS reduction capacity
Procedure: After 24 h, cells were depleted from FBS and kept in culture for 24 h before the experiment. Cells were then treated with 4-Br-A23187 (2 μM), hydrogen peroxide (300 μM) or the mitochondrial toxin rotenone (25 μM) in the presence of vehicle or Compound of the Invention for 24 h. Cell death was determined by measurements of LDH release according to the Cytotoxicity Detection KitPlus (Roche, Mannheim, Germany). Cell viability was determined by measuring the capacity of cells to metabolize MTS tetrazolium (MTS) according to the Cytotoxicity Detection KitPlus (Roche, Mannheim, Germany) and MTS reduction is assessed by the CellTiter 96® AQueous One Solution Cell Proliferation assay (Promega Corporation, Madison, Wis., USA). Compounds were screened at 10 nM, using DMSO as vehicle. Assay results for the experiments with hydrogen peroxide are presented as the LDH release (cell death) of untreated cells (control), hydrogen peroxide-treated cells (vehicle), and co-incubation of hydrogen peroxide with Compounds of the Invention treated cells normalized to the vehicle (FIG. 17A). This assay assesses the ability of the test compounds to protect against cell death that is mediated by mitochondrial dysfunction. In the assay, the calcium ionophore 4-Br-A23187 is used to challenge the cells, causing calcium levels to rise in mitochondria, which leads to depolarization and cell death. Test compounds are assessed for their ability to prevent cell death in response to challenge with 4-Br-A23187.

[3] = biological target: T1, human recombinant adrenergic α2B receptor (Homo sapiens, UniProt P18089); assay: Radioligand binding, adrenergic α2B ([3H]Rauwolscine); details: for inhibition at 0.1 µM: 0.1 μM compound, read-out: Percentage inhibition of ligand binding, Adrenergic α2B
T1 construct: expressed in transfected cells; host or cells: CHO-K1
T1 sequence (P18089 1-450): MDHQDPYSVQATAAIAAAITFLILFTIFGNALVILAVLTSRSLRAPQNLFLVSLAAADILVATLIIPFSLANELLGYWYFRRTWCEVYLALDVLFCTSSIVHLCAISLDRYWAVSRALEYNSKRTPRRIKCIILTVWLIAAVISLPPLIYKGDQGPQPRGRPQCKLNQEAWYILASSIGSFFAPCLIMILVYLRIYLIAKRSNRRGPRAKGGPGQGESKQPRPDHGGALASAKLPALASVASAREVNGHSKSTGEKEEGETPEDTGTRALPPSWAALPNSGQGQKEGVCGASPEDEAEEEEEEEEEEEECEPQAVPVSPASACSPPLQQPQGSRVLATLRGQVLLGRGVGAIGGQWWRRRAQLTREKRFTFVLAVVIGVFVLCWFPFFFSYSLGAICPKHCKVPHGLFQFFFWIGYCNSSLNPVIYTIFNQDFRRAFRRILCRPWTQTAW
How it was run: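 Readout: percent inhibition of specific [3H]Rauwolscine binding, measured by filtration and counting. Conditions: CHO-K1 cell-expressed receptor, 2.5 nM radioligand, 60 min, 25° C, Tris-HCl pH 7.4 buffer with MgCl2, EDTA, BSA. Non-specific binding: 10 μM Prazosin.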

[4] = biological target: T2, rat adrenergic α1B receptor (Rattus norvegicus, UniProt P15823); assay: Radioligand binding, adrenergic α1B ([3H]Prazosin); details: for inhibition at 0.1 µM: 0.1 μM compound, read-out: Percentage inhibition of ligand binding, Adrenergic α1B
T2 construct: rat adrenergic α1B receptor obtained from Wistar Rat liver; from tissue; host or cells: Wistar rat liver
T2 sequence (P15823 1-515): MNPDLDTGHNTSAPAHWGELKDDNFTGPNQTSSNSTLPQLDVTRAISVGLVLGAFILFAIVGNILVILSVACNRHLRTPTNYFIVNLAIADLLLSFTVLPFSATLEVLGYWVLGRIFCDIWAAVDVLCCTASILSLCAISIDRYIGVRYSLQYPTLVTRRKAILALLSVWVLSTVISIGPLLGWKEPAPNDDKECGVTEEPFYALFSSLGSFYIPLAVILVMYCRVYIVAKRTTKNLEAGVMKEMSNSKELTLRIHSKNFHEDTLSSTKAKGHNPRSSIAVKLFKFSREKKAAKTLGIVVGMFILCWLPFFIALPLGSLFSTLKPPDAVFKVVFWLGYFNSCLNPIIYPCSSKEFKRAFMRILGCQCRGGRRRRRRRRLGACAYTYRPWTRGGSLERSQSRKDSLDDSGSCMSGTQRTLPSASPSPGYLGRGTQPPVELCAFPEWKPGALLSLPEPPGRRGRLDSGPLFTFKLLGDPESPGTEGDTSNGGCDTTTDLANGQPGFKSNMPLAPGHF
How it was run: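 Filter binding with Wistar rat liver α1B preparation: test compound plus 0.25 nM [3H]prazosin, 1 h at 25° C in modified Tris-HCl buffer pH 7.4.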

[5] = biological target: T3, human recombinant adrenergic α2A receptor (Homo sapiens, UniProt P08913); assay: Radioligand binding, adrenergic α2A ([3H]MK-912); details: for inhibition at 0.1 µM: 0.1 μM compound, read-out: Percentage inhibition of ligand binding, Adrenergic α2A
T3 construct: expressed in transfected cells; host or cells: insect Sf9 cells
T3 sequence (P08913 1-465): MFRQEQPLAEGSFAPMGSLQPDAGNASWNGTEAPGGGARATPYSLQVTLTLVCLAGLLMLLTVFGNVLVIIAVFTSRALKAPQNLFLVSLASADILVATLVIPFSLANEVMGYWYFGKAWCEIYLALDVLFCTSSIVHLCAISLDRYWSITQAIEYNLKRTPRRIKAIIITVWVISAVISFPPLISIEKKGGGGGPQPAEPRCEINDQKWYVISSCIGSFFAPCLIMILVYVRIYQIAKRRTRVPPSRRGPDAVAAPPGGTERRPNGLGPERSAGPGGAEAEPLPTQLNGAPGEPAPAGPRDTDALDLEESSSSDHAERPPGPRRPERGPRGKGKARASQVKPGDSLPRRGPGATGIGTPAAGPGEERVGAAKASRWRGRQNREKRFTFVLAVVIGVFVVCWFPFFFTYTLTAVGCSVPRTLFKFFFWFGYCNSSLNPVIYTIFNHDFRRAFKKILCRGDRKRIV
How it was run: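 In 50 mM Tris-HCl (pH 7.4) containing 12.5 mM MgCl2 and 2 mM EDTA, Sf9-expressed receptor was exposed to test compound plus 1 nM [3H]MK-912 at 25 °C for 60 min. Specific binding, corrected using 10 μM WB-4101, was quantified by filtration and counting and expressed as percent inhibition.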

[6] = biological target: T4, human recombinant adrenergic α1D receptor (Homo sapiens, UniProt P25100); assay: Radioligand binding, adrenergic α1D ([3H]Prazosin); details: 0.1 μM compound; read-out: Percentage inhibition of ligand binding, Adrenergic α1D
T4 construct: expressed in transfected cells; host or cells: HEK-293
T4 sequence (P25100 1-572): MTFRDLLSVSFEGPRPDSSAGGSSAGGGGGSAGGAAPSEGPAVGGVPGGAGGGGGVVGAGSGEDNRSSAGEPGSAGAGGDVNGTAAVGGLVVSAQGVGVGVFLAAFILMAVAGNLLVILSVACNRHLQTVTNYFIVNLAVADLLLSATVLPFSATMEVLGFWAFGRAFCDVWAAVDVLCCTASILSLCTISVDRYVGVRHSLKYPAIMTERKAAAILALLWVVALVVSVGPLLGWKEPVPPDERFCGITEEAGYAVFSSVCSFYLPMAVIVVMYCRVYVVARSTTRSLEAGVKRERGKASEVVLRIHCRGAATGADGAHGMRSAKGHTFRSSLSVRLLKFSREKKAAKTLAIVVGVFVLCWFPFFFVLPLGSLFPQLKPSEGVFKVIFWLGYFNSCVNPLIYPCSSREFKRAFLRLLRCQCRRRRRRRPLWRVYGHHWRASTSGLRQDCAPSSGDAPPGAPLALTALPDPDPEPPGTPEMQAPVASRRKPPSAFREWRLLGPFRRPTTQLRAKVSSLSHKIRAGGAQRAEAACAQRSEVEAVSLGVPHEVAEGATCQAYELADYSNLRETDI
Procedure: Compounds were incubated with 0.6 nM [3H]Prazosin for 60 min at 25° C. Non-specific binding was estimated in the presence of 10 μM phentolamine. Receptor proteins were filtered and washed, the filters were then counted to determine [3H]Prazosin specifically bound. […] Biochemical assay results are presented as the percent inhibition of specific binding in Table B1.

Structure (SMILES)	viability at 0.01 µM [2] [%]	inhibition at 0.1 µM [3] [%]	inhibition at 0.1 µM [4] [%]	inhibition at 0.1 µM [6] [%]	inhibition at 0.1 µM [5] [%]	further results
Clc1cccc(Cl)c1N=C1NCCN1 [Clonidine, clonidine, reference compound]	–	–	–	–	–	maximum arterial blood pressure drop [1]: −6 mmHg
Cc1ccc2c(c1)c1c(n2CC(O)c2ccncc2)CCN(C)C1 (centres unmarked) [Cpd3b]	78.3	–	–	–	–	–
CN1CCc2c(c3cc(Cl)ccc3n2CC(O)c2ccncc2)C1 (centres unmarked) [Cpd4a]	77.5	–	–	–	–	–
Cc1ccc2c(c1)c1c(n2CC(C)(O)c2cccnc2)CCN(C)C1 (centres unmarked) [Cpd5b]	85.3	–	–	–	–	–
Cc1ccc2c(c1)c1c(n2CC(O)c2ccncc2)CCNC1 (centres unmarked) [Cpd39a]	80.8	–	–	–	–	–
N#CC(C#N)=NNc1ccc(OC(F)(F)F)cc1 [FCCP, p-trifluoromethoxyphenylhydrazone, reference compound]	–	–	–	–	–	Relative cell viability protection (SH-SY5Y cells; FCCP at 10 μM for 30 min as a control): 0.1035
Cc1ccc2c(c1)c1c(n2CC(O)c2ccncc2)CCNC1 (centres unmarked) [compound 39, 2-(8-methyl-1,2,3,4-tetrahydro-pyrido[4,3-b]indol-5-yl)-1-pyridin-4-yl-ethanol]	–	–	–	–	–	Percentage inhibition of ligand binding, Adrenergic α2B ([3]; compound at 0.03 μM, [3H]Rauwolscine, repeat assays, each datapoint shown, 0.03 µM): 89%; Percentage inhibition of ligand binding, Adrenergic α1B ([4]; compound at 0.1 μM, [3H]Prazosin, repeat assays, each datapoint shown, 0.1 µM): 25%; Percentage inhibition of ligand binding, Adrenergic α2A ([5]; compound at 0.1 μM, [3H]MK-912, repeat assays, each datapoint shown): 1%; Relative cell viability protection (SH-SY5Y cells; 4-Br-A23187 2 μM, 24 h, compounds at 10 nM): 0.36
Cc1ccc2c(c1)c1c(n2CCc2ccc3c(c2)CCCC3)CCN(C)C1 [compound 332, 2,8-dimethyl-5-[2-(5,6,7,8-tetrahydro-naphthalen-2-yl)-ethyl]-2,3,4,5-tetrahydro-1H-pyrido[4,3-b]indole]	–	86	41	51	94	–
Cc1ccc2c(c1)c1c(n2C#Cc2ccc(S(N)(=O)=O)cc2)CN(C)CC1 [compound 333, 4-(2,6-dimethyl-1,2,3,4-tetrahydro-β-carbolin-9-ylethynyl)-benzenesulfonamide]	–	88	65	16	52	–
Cc1ccc2c(c1)c1c(n2C#Cc2ccc(S(N)(=O)=O)s2)CCN(C)C1 [compound 334, 5-(2,8-dimethyl-1,2,3,4-tetrahydro-pyrido[4,3-b]indol-5-ylethynyl)-thiophene-2-sulfonic acid amide]	–	82	91	72	55	–
C/C(=C\n1c2c(c3cc(C)cnc31)CN(C)CC2)c1ccc(F)cc1 [compound 335, 9-[2-(4-fluoro-phenyl)-propenyl]-3,6-dimethyl-6,7,8,9-tetrahydro-5H-1,6,9-triaza-fluorene]	–	99	82	73	60	–
